Values quoted from earlier work in patent US20240093135A1, “BASE ELEMENT OF A MULTI-CHAMBER BIOCHIP, PRODUCTION OF THE MULTI-CHAMBER BIOCHIP, AND USE THEREOF FOR ESTABLISHING ORGAN AND DISEASE MODELS AND SUBSTANCE TESTS” (Dynamic42 GmbH, priority 2022, published 2024).

Settings: PDMS chips, after 24 hours

Question: Which “detectable share of the starting concentration in the culture medium” value does the source give for `CCCC1COC(Cn2cncn2)(c2ccc(Cl)cc2Cl)O1` (stereo not shown) [propiconazole] here?
Answer: less than 30%
